In ChEMBL document CHEMBL5143550, “Thiol- and Disulfide-Containing Vancomycin Derivatives Against Bacterial Resistance and Biofilm Formation” (2021):
Values after ≈ are worked out from the molar mass of the structure shown.

Tests used:
Format in all cases: functional
Enterococcus faecalis [1] = assay: Antibacterial activity against VanB-resistant Enterococcus faecalis ATCC 51299 assessed as inhibition of bacterial growth by standard broth microdilution susceptibility method
Enterococcus faecalis [2] = assay: Antibacterial activity against VanB-resistant Enterococcus faecalis ATCC 51299 assessed as inhibition of bacterial growth in BHIG medium incubated for 24 hrs by resazurin assay
Enterococcus gallinarum = assay: Antibacterial activity against VanC-resistant Enterococcus gallinarum ATCC 700221 assessed as inhibition of bacterial growth by standard broth microdilution susceptibility method
Staphylococcus aureus [3] = assay: Antibacterial activity against methicillin-resistant Staphylococcus aureus ATCC 43300 assessed as inhibition of bacterial growth by standard broth microdilution susceptibility method
Enterococcus faecalis [4] = assay: Antibiofilm activity against VanB-resistant Enterococcus faecalis ATCC 51299 assessed as inhibition of biofilm formation by measuring decrease in RFU in BHIG medium incubated for 24 hrs by resazurin assay
Enterococcus faecalis [5] = assay: Antibiofilm activity against VanB-resistant Enterococcus faecalis ATCC 51299 assessed as inhibition of biofilm formation in BHIG medium incubated for 24 hrs by resazurin assay
Enterococcus faecalis [6] = assay: Antibacterial activity against VanB-resistant Enterococcus faecalis ATCC 51299 assessed as inhibition of colony formation in BHIG medium incubated for 24 hrs by resazurin assay
Staphylococcus aureus [7] = assay: Antibacterial activity against Staphylococcus aureus ATCC 25923 assessed as inhibition of bacterial growth by standard broth microdilution susceptibility method
Enterococcus faecium = assay: Antibacterial activity against VanA-resistant Enterococcus faecium MMX0485 assessed as inhibition of bacterial growth by standard broth microdilution susceptibility method
Staphylococcus aureus [8] = assay: Antibacterial activity against vancomycin-intermediate Staphylococcus aureus ATCC NRS1 assessed as inhibition of bacterial growth by standard broth microdilution susceptibility method
Streptococcus pneumoniae = assay: Antibacterial activity against […] assessed as inhibition of bacterial growth by standard broth microdilution susceptibility method
Moraxella catarrhalis = assay: Antibacterial activity against Moraxella catarrhalis ATCC 8193 assessed as inhibition of bacterial growth by standard broth microdilution susceptibility method
Staphylococcus aureus [9] = assay: Antibacterial activity against heterogenous vancomycin-intermediate Staphylococcus aureus ATCC NRS24 assessed as inhibition of bacterial growth by standard broth microdilution susceptibility method
Clostridioides difficile = assay: Antibacterial activity against Clostridium difficile ATCC 43255 assessed as inhibition of bacterial growth by standard broth microdilution susceptibility method

| Structure (SMILES) | MIC (Enterococcus faecalis [1]) | inhibition (INH) (Enterococcus faecalis [2]) | MIC (Enterococcus gallinarum) | MIC (Staphylococcus aureus [3]) | inhibition (INH) (Enterococcus faecalis [4]) | MBIC (Enterococcus faecalis [5]) | Activity (Enterococcus faecalis [6]) | MIC (Staphylococcus aureus [7]) | MIC (Enterococcus faecium) | MIC (Staphylococcus aureus [8]) | MIC (Streptococcus pneumoniae) | MIC (Moraxella catarrhalis) | MIC (Staphylococcus aureus [9]) | MIC (Clostridioides difficile) |
| --- | --- | --- | --- | --- | --- | --- | --- | --- | --- | --- | --- | --- | --- | --- |
| CCSSCCNC(=O)[C@H]1NC(=O)[C@H]2NC(=O)[C@H](NC(=O)[C@@H]3NC(=O)[C@H](CC(N)=O)NC(=O)[C@H](NC(=O)[C@@H](CC(C)C)NC)[C@H](O)c4ccc(c(Cl)c4)Oc4cc3cc(c4O[C@@H]3O[C@H](CO)[C@@H](O)[C@H](O)[C@H]3O[C@H]3C[C@](C)(N)[C@H](O)[C@H](C)O3)Oc3ccc(cc3Cl)[C@H]2O)c2ccc(O)c(c2)-c2c(O)cc(O)cc21 | 1 µg/mL (≈ 0.638 µM) | 100% | 8 µg/mL (≈ 5.1 µM) | 1 µg/mL (≈ 0.638 µM) | 100% | 32 µg/mL | 32 µg/mL | 1 µg/mL (≈ 0.638 µM) | – | – | – | – | – | – |
| CN[C@H](CC(C)C)C(=O)N[C@H]1C(=O)N[C@@H](CC(N)=O)C(=O)N[C@H]2C(=O)N[C@H]3C(=O)N[C@H](C(=O)N[C@H](C(=O)NCCCCCCCCS)c4cc(O)cc(O)c4-c4cc3ccc4O)[C@H](O)c3ccc(c(Cl)c3)Oc3cc2cc(c3O[C@@H]2O[C@H](CO)[C@@H](O)[C@H](O)[C@H]2O[C@H]2C[C@](C)(N)[C@H](O)[C@H](C)O2)Oc2ccc(cc2Cl)[C@H]1O | 8 µg/mL (≈ 5.02 µM) | 100% | 8 µg/mL (≈ 5.02 µM) | 4 µg/mL (≈ 2.51 µM) | 98% | 8 µg/mL | 8 µg/mL | 4 µg/mL (≈ 2.51 µM) | 2 µg/mL (≈ 1.26 µM) | 2 µg/mL (≈ 1.26 µM) | 0.5 µg/mL (≈ 0.314 µM) | 8 µg/mL (≈ 5.02 µM) | 2 µg/mL (≈ 1.26 µM) | 4 µg/mL (≈ 2.51 µM) |
| CN[C@H](CC(C)C)C(=O)N[C@H]1C(=O)N[C@@H](CC(N)=O)C(=O)N[C@H]2C(=O)N[C@H]3C(=O)N[C@H](C(=O)N[C@H](C(=O)NCCSSc4ccccn4)c4cc(O)cc(O)c4-c4cc3ccc4O)[C@H](O)c3ccc(c(Cl)c3)Oc3cc2cc(c3O[C@@H]2O[C@H](CO)[C@@H](O)[C@H](O)[C@H]2O[C@H]2C[C@](C)(N)[C@H](O)[C@H](C)O2)Oc2ccc(cc2Cl)[C@H]1O | 16 µg/mL (≈ 9.89 µM) | 100% | 8 µg/mL (≈ 4.95 µM) | 2 µg/mL (≈ 1.24 µM) | 99% | 16 µg/mL | 16 µg/mL | 4 µg/mL (≈ 2.47 µM) | 8 µg/mL (≈ 4.95 µM) | 4 µg/mL (≈ 2.47 µM) | 0.5 µg/mL (≈ 0.309 µM) | > 32 µg/mL | 4 µg/mL (≈ 2.47 µM) | 0.5 µg/mL (≈ 0.309 µM) |
| CN[C@H](CC(C)C)C(=O)N[C@H]1C(=O)N[C@@H](CC(N)=O)C(=O)N[C@H]2C(=O)N[C@H]3C(=O)N[C@H](C(=O)N[C@H](C(=O)NCCSSCCNC(=O)CCCCC4CCSS4)c4cc(O)cc(O)c4-c4cc3ccc4O)[C@H](O)c3ccc(c(Cl)c3)Oc3cc2cc(c3O[C@@H]2O[C@H](CO)[C@@H](O)[C@H](O)[C@H]2O[C@H]2C[C@](C)(N)[C@H](O)[C@H](C)O2)Oc2ccc(cc2Cl)[C@H]1O (stereo partly drawn) | 4 µg/mL (≈ 2.26 µM) | 100% | 8 µg/mL (≈ 4.52 µM) | 2 µg/mL (≈ 1.13 µM) | 100% | 16 µg/mL | 16 µg/mL | 2 µg/mL (≈ 1.13 µM) | > 32 µg/mL | 2 µg/mL (≈ 1.13 µM) | 0.25 µg/mL (≈ 0.141 µM) | 8 µg/mL (≈ 4.52 µM) | 2 µg/mL (≈ 1.13 µM) | 0.5 µg/mL (≈ 0.282 µM) |
| CN[C@H](CC(C)C)C(=O)N[C@H]1C(=O)N[C@@H](CC(N)=O)C(=O)N[C@H]2C(=O)N[C@H]3C(=O)N[C@H](C(=O)N[C@H](C(=O)NCCOCCNC(=O)CCCCC4CCSS4)c4cc(O)cc(O)c4-c4cc3ccc4O)[C@H](O)c3ccc(c(Cl)c3)Oc3cc2cc(c3O[C@@H]2O[C@H](CO)[C@@H](O)[C@H](O)[C@H]2O[C@H]2C[C@](C)(N)[C@H](O)[C@H](C)O2)Oc2ccc(cc2Cl)[C@H]1O (stereo partly drawn) | 4 µg/mL (≈ 2.32 µM) | 100% | 8 µg/mL (≈ 4.64 µM) | 2 µg/mL (≈ 1.16 µM) | 97% | 8 µg/mL | 8 µg/mL | 4 µg/mL (≈ 2.32 µM) | – | – | – | – | – | – |
| CN[C@H](CC(C)C)C(=O)N[C@H]1C(=O)N[C@@H](CC(N)=O)C(=O)N[C@H]2C(=O)N[C@H]3C(=O)N[C@H](C(=O)N[C@H](C(=O)NCCSSCCNC(=O)CCS)c4cc(O)cc(O)c4-c4cc3ccc4O)[C@H](O)c3ccc(c(Cl)c3)Oc3cc2cc(c3O[C@@H]2O[C@H](CO)[C@@H](O)[C@H](O)[C@H]2O[C@H]2C[C@](C)(N)[C@H](O)[C@H](C)O2)Oc2ccc(cc2Cl)[C@H]1O | 2 µg/mL (≈ 1.2 µM) | 100% | 4 µg/mL (≈ 2.39 µM) | 0.5 µg/mL (≈ 0.299 µM) | 97% | 8 µg/mL | 8 µg/mL | 0.5 µg/mL (≈ 0.299 µM) | 8 µg/mL (≈ 4.79 µM) | 1 µg/mL (≈ 0.598 µM) | 0.25 µg/mL (≈ 0.15 µM) | 2 µg/mL (≈ 1.2 µM) | 1 µg/mL (≈ 0.598 µM) | 1 µg/mL (≈ 0.598 µM) |
| CN[C@H](CC(C)C)C(=O)N[C@H]1C(=O)N[C@@H](CC(N)=O)C(=O)N[C@H]2C(=O)N[C@H]3C(=O)N[C@H](C(=O)N[C@H](C(=O)NCCSSCCN)c4cc(O)cc(O)c4-c4cc3ccc4O)[C@H](O)c3ccc(c(Cl)c3)Oc3cc2cc(c3O[C@@H]2O[C@H](CO)[C@@H](O)[C@H](O)[C@H]2O[C@H]2C[C@](C)(N)[C@H](O)[C@H](C)O2)Oc2ccc(cc2Cl)[C@H]1O | 8 µg/mL (≈ 5.05 µM) | 98% | 8 µg/mL (≈ 5.05 µM) | 1 µg/mL (≈ 0.631 µM) | 86% | 16 µg/mL | 16 µg/mL | 1 µg/mL (≈ 0.631 µM) | 8 µg/mL (≈ 5.05 µM) | 1 µg/mL (≈ 0.631 µM) | ≤ 0.03 µg/mL | > 32 µg/mL | 1 µg/mL (≈ 0.631 µM) | 0.5 µg/mL (≈ 0.316 µM) |
| CN[C@H](CC(C)C)C(=O)N[C@H]1C(=O)N[C@@H](CC(N)=O)C(=O)N[C@H]2C(=O)N[C@H]3C(=O)N[C@H](C(=O)N[C@H](C(=O)O)c4cc(O)cc(O)c4-c4cc3ccc4O)[C@H](O)c3ccc(c(Cl)c3)Oc3cc2cc(c3O[C@@H]2O[C@H](CO)[C@@H](O)[C@H](O)[C@H]2O[C@H]2C[C@](C)(N)[C@H](O)[C@H](C)O2)Oc2ccc(cc2Cl)[C@H]1O [VANCOMYCIN] | 16 µg/mL (≈ 11 µM) | 100% | 8 µg/mL (≈ 5.52 µM) | – | 98% | 64 µg/mL | 64 µg/mL | – | > 128 µg/mL | 8 µg/mL (≈ 5.52 µM) | 0.12 µg/mL (≈ 0.0828 µM) | > 32 µg/mL | 16 µg/mL (≈ 11 µM) | 0.12 µg/mL (≈ 0.0828 µM) |
